According to patent publication US20190274974A1, “Treatment of Pain Associated with Trigeminal Neuralgia” (priority 2011, published 2019):
“Also recorded” adds a separate entry of the source.

Columns and labels:
CCI-SN rats [1] = conditions: rat, in vivo; cited from earlier work
CCI-SN rats [2] = format: in vivo, rat; conditions: rat, in vivo
Procedure: Rats are anaesthetized with sodium pentobarbital (50 mg/kg i.p.). Unilateral CCI-SN is performed under direct visual control using a Zeiss microscope (10-25×) essentially as described by Bennett and Xie (G. J. Bennett et al., Pain, 33 (1988) 87-107).
Mechanical sensitivity is determined with a graded series of von Frey filaments (Bioseb, Bordeaux, France; bending force: 0.07-60.0 g). The stimuli are applied within the SN territory (midplantar surface of the left hindpaw) three times at the nerve-injured side (ipsilateral, left) and then at the contralateral side for a total of 6 applications of each filament per rat, always beginning with the filament producing the lowest force. The von Frey filaments are applied at least 3 seconds after the rats returned to their initial resting state. For each session, the complete series of von Frey filaments is tested in increasing force order. The minimal force filament causing a hindpaw withdrawal response allows determination of the mechanical response threshold. The 60 g filament is the cut-off threshold.
For studying the effects of acute treatment with tapentadol in CCI-SN rats, tapentadol (1, 3 and 10 mg/kg i.p.) or its vehicle (0.9% NaCl i. p.) was injected acutely 14 days after surgery. Sham-operated rats were treated in parallel. Pressure threshold values to trigger nocifensive responses to von Frey filaments application onto the plantar surface of ipsilateral hindpaw were determined at various times after acute injection of tapentadol or saline. Cut-off was fixed at 60 g pressure.
For studying the effects of subchronic treatment with tapentadol in CCI-SN rats, starting on day 16 (Time=D) after surgery, they received i.p. injections of tapentadol (10 mg/kg, twice daily, at 10:00 AM and 6:00 PM) or saline (at the same day times as the drug) for four days. On the following day (day 20 after surgery), both tapentadol- and saline-pretreated CCI-SN rats were i.p. injected with Tapentadol (10 mg/kg; Time=0) and then subjected to von Frey filaments'test applied to ipsilateral hindpaw for determination of pressure threshold values at various times thereafter.
In a second part of this study (B), unilateral chronic constriction injury to the sciatic nerve was performed two weeks before acute treatment with reboxetine (10 mg/kg i.p.), tapentadol (10 mg/kg i.p.) or saline (0.5 ml i.p./rat). Pressure threshold values were then determined at various times using von Frey filaments test applied to ipsilateral hindpaw.
Morphine (1, 3 and 10 mg/kg s.c.) or its vehicle (0.9% NaCl) was injected acutely 14 days after CCI-SN surgery. Sham-operated rats were treated in parallel. Pressure threshold values to trigger nocifensive responses to von Frey filaments application onto the plantar surface of ipsilateral hindpaw were determined at various times after acute injection of morphine or saline.
14 days after CCI-SN surgery, rats were injected with reboxetine (10 mg/kg i.p.) or its vehicle (0.9% NaCl) followed, 15 min later, by morphine (1 mg/kg s.c.) or its vehicle (0.9% NaCl) and subjected to von Frey filament tests for the following 4 hours. Sham-operated rats were treated in parallel.
The results are depicted in FIG. 11.

CCI-ION rats [3] = conditions: rat, in vivo; cited from earlier work
CCI-ION rats [4] = format: in vivo, rat; conditions: rat, in vivo
Procedure: Rats are anaesthetized with sodium pentobarbital (50 mg/kg i.p.). Unilateral CCI-ION is performed under direct visual control using a Zeiss microscope (10-25×) essentially as described by Vos et al (Vos B P, Strassman A M, Maciewicz R J (1994), J. Neurosci. 14: 2708-2723). Briefly, the head is fixed in a Horsley-Clarke stereotaxic frame and a midline scalp incision is made, exposing skull and nasal bone. The edge of the orbit, formed by the maxillary, frontal, lacrimal, and zygomatic bones, is dissected free. The orbital contents are gently deflected to give access to the infraorbital nerve which is dissected free at its most rostral extent in the orbital cavity, just caudal to the infraorbital foramen. Only 5 mm of the nerve can be freed (Vos et al.), providing the space for placement of two chromic catgut (5-0) ligations tied loosely (with about 2 mm spacing) around it. […] Finally, scalp incision is closed using silk sutures (4-0). In sham-operated rats, the ION is exposed using the […] procedure, but is not ligated.
Mechanical sensitivity is determined with a graded series of eleven von Frey filaments (Bioseb, Bordeaux, France). The filaments produce a bending force of 0.07, 0.16, 0.40, 0.60, 1.00, 2.00, 4.00, 6.00, 8.00, 10.00 and 12.00 g, respectively. The stimuli are applied within the ION territory (vibrissae pad) three times at the nerve-injured side and then at the contralateral side for a total of 6 applications of each filament per rat, always beginning with the filament producing the lowest force. The von Frey filaments are applied at least 3 seconds after the rats returned to their initial resting state. For each session, the complete series of von Frey filaments is tested in increasing force order.
The latter responses represent the highest scores in the rank-ordered response scoring system initially described by Vos et al. The minimal force filament causing at least one among these responses (to at least 2 out of the 3 an each side) allows determination of the mechanical response threshold. The 12.00 g filament is the cut-off threshold (no tissue-injury occurs at this pressing force).
For studying the effects of acute treatment with tapentadol in CCI-ION rats, tapentadol (1 or 10 mg/kg i.p.) or its vehicle (0.9% NaCl i. p.) was injected acutely 14 days after surgery. Sham-operated rats were treated in parallel. Pressure threshold values to trigger nocifensive responses to von Frey filaments application onto the plantar surface of ipsilateral hindpaw were determined at various times after acute injection of tapentadol or saline. Cut-off was fixed at 12 g pressure.
For studying the effects of subchronic treatment with tapentadol in CCI-ION rats, starting on day 16 (Time=D) after surgery, they received i.p. injections of tapentadol (10 mg/kg, twice daily, at 10:00 AM and 6:00 PM) or saline (at the same day times as the drug) for four days. On the following day (day 20 after surgery), both tapentadol- and saline-pretreated CCI-SN rats were i.p. injected with Tapentadol (10 mg/kg; Time=0) and then subjected to von Frey filaments' test applied to ipsilateral hindpaw for determination of pressure threshold values at various times thereafter.
14 days after CCI-ION surgery, rats were injected with reboxetine (10 mg/kg i.p.) or its vehicle (0.9% NaCl) followed, 15 min later, by morphine (3 mg/kg s.c.) or its vehicle (0.9% NaCl) and subjected to von Frey filament tests for the following 4 hours. Sham-operated rats were treated in parallel.

BDNF-induced allodynia [5] = assay: Mechanical allodynia induced by intrathecal administration of BDNF in healthy rats (von Frey filaments test); format: in vivo, rat
Procedure: In a first part of this study, BDNF (0.3 ng in 25 μl of saline per rat) or saline (25 μl) was injected intrathecally in adult male rats slightly anesthetized with isoflurane (according to Mestre et al. (1994), J. Pharmacol. Toxicol. Meth., 32, 197-200), and animals were subjected to von Frey filaments test applied to hindpaws at various times thereafter.
In a second part of this study, tapentadol (3 or 10 mg/kg i.p.) or saline was administered to rats on the 7th day (Time=0 on abscissa) after intrathecal injection of BDNF (Time=C) as described above. Pressure threshold values were determined using von Frey filaments test applied to hindpaws.
In a first part of this study (A), reboxetine (10 mg/kg i.p.; mesylate, Ascent Scientific, Bristol, UK), tapentadol (10 mg/kg i.p.) or saline (0.5 ml i.p./rat) was injected on the 7th day after intrathecal administration of BDNF (0.3 ng in 25 μl of saline per rat). Pressure threshold values were determined at various times thereafter using von Frey filaments test applied to hindpaws.

BDNF-induced allodynia [6] = assay: as above; format: in vivo, rat; conditions: BDNF 0.3 ng i.t.; up to 11 days; data not shown

In the case of `CN1CC[C@]23c4c5ccc(O)c4O[C@H]2[C@@H](O)C=C[C@H]3[C@H]1C5` [morphine], the “effect on mechanical allodynia generated by CCI-SN” value (CCI-SN rats [1]) is given as “significantly attenuate”, the “anti-allodynic effect (pressure threshold to trigger hindpaw withdrawal)” value (CCI-SN rats [2]) is given as “strongly anti-allodynic” and the “increase in pressure threshold values” (CCI-SN rats [2]) is given as “only discrete increases”. For the same molecule, the “persistence of full reversal” value (CCI-SN rats [2]) was “at least one hour”, the “reversal of CCI-SN-induced mechanical allodynia” value (CCI-SN rats [2]) was “fully reversed; also recorded: not completely reversed” and the “time after injection at which full reversal was reached” value (CCI-SN rats [2]) was 30 min. The “effect on mechanical allodynia generated by CCI-ION” value (CCI-ION rats [3]) was “ineffective”, the anti-allodynic effect (CCI-ION rats [4]) was “only a discrete effect” and the “maximal increase in pressure threshold value as share of that determined in healthy intact rats” value (CCI-ION rats [4]) was 20%.

With `CCOc1ccccc1OC(c1ccccc1)C1CNCCO1` (centres unmarked) [reboxetine, reference compound] the “anti-allodynic effect compared to tapentadol (10 mg/kg i.p.)” value (CCI-SN rats [2]) was “developed more slowly and was much less pronounced”, the “increase in pressure threshold values” (CCI-SN rats [2]) was “only discrete increases” and the “reversal of CCI-SN-induced decrease in pressure threshold values” (CCI-SN rats [2]) was “significant but only partial reversal”. The “maximal increase in pressure threshold values relative to that caused by 10 mg/kg i.p. of tapentadol” value (BDNF-induced allodynia [5]; rat, in vivo) was “only one third”, the “reversal of mechanical allodynia caused by intrathecal BDNF” value (BDNF-induced allodynia [5]; rat, in vivo) was “significant but partial reversal” and the “time at which the maximal increase in pressure threshold was reached” value (BDNF-induced allodynia [5]; rat, in vivo) was 45 min. For the same molecule, the anti-allodynic effect (CCI-ION rats [4]) was “completely inactive”.

For `NC1=N[C@H](O)[C@H]2[C@H]3O[C@]4(O)O[C@@H]([C@@H](O)[C@@]2(N1)[C@@H]4O)[C@]3(O)CO` [tetrodotoxin], the “effect on mechanical allodynia generated by CCI-SN” value (CCI-SN rats [1]) is given as “significantly attenuate” and the “effect on mechanical allodynia generated by CCI-ION” value (CCI-ION rats [3]) is given as “ineffective”.

B1: BDNF: neurotrophic factor injected intrathecally (0.3 ng per rat) to induce mechanical allodynia (protein, UniProt P23560 19-247, looked up)
Neurotrophic factor BDNF …: APMKEANIRGQGGLAYPGVRTHGTLESVNGPKAGSRGLTSLADTFEHVIEELLDEDQKVRPNEENNKDADLYTSRVMLSSQVPLEPPLLFLLEEYKNYLDAANMSMRVRRHSDPARRGELSVCDSISEWVTAADKKTAVDMSGGTVTVLEKVPVSKGQLKQYFYETKCNPMGYTKEGCRGIDKRHWNSQCRTTQSYVRALTMDSKKRIGWRFIRIDTSCVCTLTIKRGR
With B1 the “hindpaw pressure threshold values from day 4 to day 8 after injection” value (BDNF-induced allodynia [5]; BDNF 0.3 ng i.t.) was “as low as those previously determined two weeks after surgery in CCI-SN rats”, the “hindpaw pressure threshold values on the 11th day relative to untreated healthy rats” value (BDNF-induced allodynia [5]; BDNF 0.3 ng i.t.) was “only half” and the “pressure threshold value to trigger hindpaw withdrawal after intrathecal injection” value (BDNF-induced allodynia [5]; BDNF 0.3 ng i.t., single injection, healthy rats) was “progressive and long lasting decrease”. For the same molecule, the “pressure threshold value within the vibrissal pad” value (BDNF-induced allodynia [6]) was about 12 g and the “pressure threshold values, von Frey filaments applied within the vibrissal pad” value (BDNF-induced allodynia [6]) was “not significantly modified”.
